Where “and” joins values, the source holds several entries; their conditions need not be identical. Equal entries are not always repeated. Toxic doses and inconclusive results are not listed. No stated cut-off is given here; in the data, active means T/C of 150% or more; inactive means T/C below 125%.
Tested on: L1210 leukemia ip in BDF1 mice, survival T/C
Assay: NCI In Vivo Anticancer Drug Screen. Data for tumor model L1210 Leukemia (intraperitoneal) in B6D2F1 (BDF1) mice
Conditions: endpoint: mean survival time, higher = longer survival
Procedure, shortened: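 Transplantable tumor model; survival measured in treated vs vehicle control mice. Value = treated/control.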

[1] = dose: 50.0 mg/kg/injection, schedule: Q01DX001 (ip), vehicle: saline
[2] = dose: 100.0 mg/kg/injection, schedule: Q01DX001 (ip), vehicle: saline
[3] = dose: 200.0 mg/kg/injection, schedule: Q01DX001 (ip), vehicle: saline
[4] = dose: 400.0 mg/kg/injection, schedule: Q01DX001 (ip), vehicle: saline
[5] = dose: 100.0 mg/kg/injection, schedule: Q01DX001 (ip), vehicle: Klucel (hydroxypropylcellulose) (HPC)
[6] = dose: 100.0 mg/kg/injection, schedule: Q04DX003 (ip), vehicle: Klucel (hydroxypropylcellulose) (HPC)
[7] = dose: 200.0 mg/kg/injection, schedule: Q01DX001 (ip), vehicle: Klucel (hydroxypropylcellulose) (HPC)
[8] = dose: 200.0 mg/kg/injection, schedule: Q04DX003 (ip), vehicle: Klucel (hydroxypropylcellulose) (HPC)
[9] = dose: 400.0 mg/kg/injection, schedule: Q01DX001 (ip), vehicle: Klucel (hydroxypropylcellulose) (HPC)
[10] = dose: 400.0 mg/kg/injection, schedule: Q04DX003 (ip), vehicle: Klucel (hydroxypropylcellulose) (HPC)
[11] = dose: 100.0 mg/kg/injection, schedule: Q04DX003 (ip), vehicle: saline with Tween-80
[12] = dose: 200.0 mg/kg/injection, schedule: Q04DX003 (ip), vehicle: saline with Tween-80
[13] = dose: 100.0 mg/kg/injection, schedule: Q01DX009 (ip), vehicle: Klucel (hydroxypropylcellulose) (HPC)
[14] = dose: 100.0 mg/kg/injection, schedule: Q04DX002 (ip), vehicle: Klucel (hydroxypropylcellulose) (HPC)
[15] = dose: 200.0 mg/kg/injection, schedule: Q01DX009 (ip), vehicle: Klucel (hydroxypropylcellulose) (HPC)
[16] = dose: 200.0 mg/kg/injection, schedule: Q04DX002 (ip), vehicle: Klucel (hydroxypropylcellulose) (HPC)
[17] = dose: 400.0 mg/kg/injection, schedule: Q01DX009 (ip), vehicle: Klucel (hydroxypropylcellulose) (HPC)
[18] = dose: 400.0 mg/kg/injection, schedule: Q04DX002 (ip), vehicle: Klucel (hydroxypropylcellulose) (HPC)
[19] = dose: 100.0 mg/kg/injection, schedule: Q01DX009 (ip), vehicle: saline with Tween-80
[20] = dose: 200.0 mg/kg/injection, schedule: Q01DX009 (ip), vehicle: saline with Tween-80

Measured: T/C

OC(c1ccc(Cl)cc1)c1ccc(Cl)cc1
inactive: dose: 75.0 mg/kg/injection, schedule: Q01DX001 (ip), vehicle: acetone 97 % of control | dose: 150.0 mg/kg/injection, schedule: Q01DX001 (ip), vehicle: acetone 97 % of control | dose: 300.0 mg/kg/injection, schedule: Q01DX001 (ip), vehicle: acetone 94 % of control

CC(C)(C)C(=O)Nc1ccc(S(=O)(=O)c2ccc(NC(=O)C(C)(C)C)cc2)cc1
inactive: [1] 95 % of control | [2] 93 % of control | [3] 93 % of control | [4] 98 % of control

CCN1C(=O)CC2CCCC1C2 (centres undefined)
inactive: [2] 90 % of control

CC1C=CC=CC=C1
inactive: [5] 98 % of control | [6] 102 % of control | [7] 90 % of control | [8] 93 % of control | [9] 92 % of control | [10] 86 % of control

CCOc1ccc(N=Nc2c(O)n(-c3ccccc3C)c(=S)n(-c3ccccc3OC)c2=O)cc1
inactive: dose: 75.0 mg/kg/injection, schedule: Q01DX003 (ip), vehicle: Klucel (hydroxypropylcellulose) (HPC) 91 % of control | dose: 150.0 mg/kg/injection, schedule: Q01DX003 (ip), vehicle: Klucel (hydroxypropylcellulose) (HPC) 94 % of control | dose: 300.0 mg/kg/injection, schedule: Q01DX003 (ip), vehicle: Klucel (hydroxypropylcellulose) (HPC) 91 % of control

O=C(O)c1ccc[n+]([O-])c1
inactive: [11] 100 % of control | [12] 100 % of control

Cc1ccc(C)c(OC(=O)Nc2cccc(C(F)(F)F)c2)c1
inactive: [5] 104 % of control | [13] 93 % of control and 110 % of control | [14] 105 % of control | [6] 92 % of control | [7] 98 % of control | [15] 96 % of control and 109 % of control | [16] 99 % of control and 115 % of control | [8] 97 % of control | [9] 100 % of control | [17] 101 % of control and 86 % of control | [18] 101 % of control and 105 % of control | [10] 103 % of control

O=C(OC1CSC(OC(=O)c2ccccc2)CS1)c1ccccc1 (centres undefined)
inactive: dose: 100.0 mg/kg/injection, schedule: Q04DX002 (ip), vehicle: saline with Tween-80 95 % of control | dose: 200.0 mg/kg/injection, schedule: Q04DX002 (ip), vehicle: saline with Tween-80 95 % of control | dose: 400.0 mg/kg/injection, schedule: Q04DX002 (ip), vehicle: saline with Tween-80 91 % of control

C(=N\C(/N=C/c1ccco1)c1ccco1)/c1ccco1
inactive: [13] 94 % of control | [6] 96 % of control | [15] 105 % of control | [8] 98 % of control | [17] 97 % of control | [10] 100 % of control

COc1ccc(CN2CCCN(Cc3ccc(OC)cc3OC)C2c2ccncc2)c(OC)c1
inactive: [1] 94 % of control | [2] 97 % of control | [3] 105 % of control | [4] 103 % of control

O=C(Nc1ccccc1F)N(Cc1ccccc1)Cc1ccccc1
inactive: dose: 50.0 mg/kg/injection, schedule: Q01DX009 (ip), vehicle: Klucel (hydroxypropylcellulose) (HPC) 96 % of control | [13] 104 % of control | [15] 101 % of control

CCCc1cc(CCC)nc(NNc2nc(CCC)cc(CCC)n2)n1
inactive: [19] 104 % of control | [20] 96 % of control | dose: 400.0 mg/kg/injection, schedule: Q01DX009 (ip), vehicle: saline with Tween-80 110 % of control

CCCCCCCCCCCCCCC
inactive: dose: 100.0 mg/kg/injection, schedule: Q01DX001 (ip), vehicle: saline with Tween-80 107 % of control | dose: 200.0 mg/kg/injection, schedule: Q01DX001 (ip), vehicle: saline with Tween-80 95 % of control | dose: 400.0 mg/kg/injection, schedule: Q01DX001 (ip), vehicle: saline with Tween-80 91 % of control

Nc1nc(=O)[nH]nc1SCc1ccccc1
inactive: [2] 104 % of control | [3] 98 % of control | [4] 98 % of control

O=S(=O)(OCC1CO1)c1ccc(N=Nc2ccccc2)cc1 (centres undefined)
inactive: dose: 100.0 mg/kg/injection, schedule: Q01DX008 (ip), vehicle: Klucel (hydroxypropylcellulose) (HPC) 98 % of control | dose: 200.0 mg/kg/injection, schedule: Q01DX008 (ip), vehicle: Klucel (hydroxypropylcellulose) (HPC) 90 % of control | dose: 400.0 mg/kg/injection, schedule: Q01DX008 (ip), vehicle: Klucel (hydroxypropylcellulose) (HPC) 96 % of control

COC(=O)C(CCC(=O)CCl)N1C(=O)c2ccccc2C1=O (centres undefined)
inactive: [11] 89 % of control | [12] 89 % of control

NC(Cc1ccccc1)C(=O)NCCCl (centres undefined)
inactive: dose: 10.0 mg/kg/injection, schedule: Q01DX Z (ip), vehicle: saline 86 % of control | dose: 30.0 mg/kg/injection, schedule: Q01DX Z (ip), vehicle: saline 93 % of control | dose: 300.0 mg/kg/injection, schedule: Q01DX Z (ip), vehicle: saline 96 % of control

Cc1ccc(S(=O)(=O)N(CCCc2c(C)[nH]c(=S)[nH]c2=O)c2ccccc2)cc1
inactive: dose: 50.0 mg/kg/injection, schedule: Q04DX002 (ip), vehicle: Klucel (hydroxypropylcellulose) (HPC) 91 % of control | [14] 100 % of control and 91 % of control | [16] 100 % of control and 91 % of control | [18] 100 % of control

O=C(NNc1cccc(Cl)c1)C(O)C(O)C(O)C(O)CO (centres undefined)
inactive: dose: 50.0 mg/kg/injection, schedule: Q01DX009 (ip), vehicle: saline with Tween-80 107 % of control | [19] 98 % of control | [20] 115 % of control

c1ccc(Cc2ccncc2)cc1
inactive: [19] 101 % of control | [20] 106 % of control

CCC(N)(CC)C(=O)O
inactive: dose: 50.0 mg/kg/injection, schedule: Q01DX009 (ip), vehicle: saline 102 % of control | dose: 100.0 mg/kg/injection, schedule: Q01DX009 (ip), vehicle: saline 98 % of control | dose: 200.0 mg/kg/injection, schedule: Q01DX009 (ip), vehicle: saline 95 % of control

Cc1ccc(Oc2cccc3c2CC[N+](C)(C)C3)cc1
inactive: dose: 6.25 mg/kg/injection, schedule: Q04DX002 (ip), vehicle: Klucel (hydroxypropylcellulose) (HPC) 96 % of control | dose: 12.5 mg/kg/injection, schedule: Q01DX001 (ip), vehicle: Klucel (hydroxypropylcellulose) (HPC) 97 % of control | dose: 12.5 mg/kg/injection, schedule: Q04DX002 (ip), vehicle: Klucel (hydroxypropylcellulose) (HPC) 96 % of control | dose: 25.0 mg/kg/injection, schedule: Q04DX002 (ip), vehicle: Klucel (hydroxypropylcellulose) (HPC) 100 % of control | dose: 50.0 mg/kg/injection, schedule: Q01DX001 (ip), vehicle: Klucel (hydroxypropylcellulose) (HPC) 94 % of control

NCCc1cc(O)c(O)c(S(=O)(=O)c2ccccc2)c1
inactive: dose: 87.5 mg/kg/injection, schedule: Q01DX009 (ip), vehicle: saline 96 % of control | dose: 175.0 mg/kg/injection, schedule: Q01DX009 (ip), vehicle: saline 94 % of control | dose: 350.0 mg/kg/injection, schedule: Q01DX009 (ip), vehicle: saline 115 % of control

O=C1OC(CO)C(O)C1O (centres undefined)
inactive: [2] 101 % of control | [3] 95 % of control | [4] 91 % of control

CCCCCCCCCCCCCC(O)CC(=O)O (centres undefined)
inactive: [14] 91 % of control | [16] 91 % of control | [18] 104 % of control

CCOP(=O)(Nc1ccc2c(c1)Cc1c-2cc(Br)c(NC(C)=O)c1Br)OCC
inactive: dose: 50.0 mg/kg/injection, schedule: Q01DX001 (ip), vehicle: carboxymethylcellulose (CMC) 97 % of control | dose: 100.0 mg/kg/injection, schedule: Q01DX001 (ip), vehicle: carboxymethylcellulose (CMC) 94 % of control | dose: 200.0 mg/kg/injection, schedule: Q01DX001 (ip), vehicle: carboxymethylcellulose (CMC) 105 % of control | dose: 400.0 mg/kg/injection, schedule: Q01DX001 (ip), vehicle: carboxymethylcellulose (CMC) 100 % of control

— PubChem BioAssay AID248 (DTP/NCI, 2004)
